Laboratory results published in patent publication US20080014211A1, “Methods to elicit, enhance and sustain immune responses against MHC class I-restricted epitopes, for prophylactic and therapeutic purposes” (priority 2006, published 2008).

Assays:
[1] = tested on: CD4+/CD25+/FoxP3+ T regulatory cells; details: intraperitoneal 100 mg/kg; mice bearing HPV-16 transformed tumors
[2] = tested on: HPV-16 transformed tumor cells; experiment: Neoadjuvant efficacy: immunotherapy prior to primary tumor treatment (Example 14); format: in vivo, C57BL/6 mice
Experimental: Then mice are treated with CTX (100 mg/kg) starting on day 30 or by radiotherapy, every other day until the animals reach complete remission (FIG. 15). A separate cohort has the tumor removed on day 30 but no treatment with CTX. The animals are then observed for tumor relapse.

[3] = tested on: HPV-16 transformed tumor cells; experiment: Adjunctive therapy, survival (Kaplan-Meier) (Example 11); format: in vivo, C57BL/6 mice; details: two therapeutic cycles; Kaplan-Meier estimates; n=20
Experimental: The effect of adjunctive therapy on survival was also evaluated in C57BL/6 mice inoculated with 10^5 HPV-16 transformed tumor cells as described in Example 10. A second therapeutic cycle was administered in which animals received CTX (30 mg/kg) on Day 46 and 50 (n=20), immunization with E749-57 HPV peptide and dsRNA (25 μg/Day) in bilateral inguinal lymph nodes on Day 52, 56, 65, and 69 (n=20), or were treated with a combination of CTX and immunotherapy (n=20). Kaplan-Meier (product-limit) estimates of the survival function were obtained for each of the four conditions (Control, CTX Only, Immunotherapy Only and CTX/Immunotherapy Combined), as shown in FIG. 12. Log-Rank tests were used to compare the four survival curves.

[4] = tested on: HPV-16 transformed tumor cells; experiment: Adjuvant efficacy: immunotherapy after primary tumor removal (Example 13); format: in vivo, C57BL/6 mice
Experimental: A separate cohort is left untreated and tumors are removed at day 20 using surgery or irradiated using conventional radiotherapy. […] Additional control arms are treated with CTX, radiotherapy or surgery but not immunized.

[5] = tested on: CD4+CD25+Fox P3+ T-regulatory cells; details: tumor bearing mice, one injection 100 mg/kg on Day 46, spleens day 49; p=0.02
Experimental: Control mice received either poyIC or saline.
Mice received one injection of cyclophosphamide (CTX, 100 mg/kg) on days 46 […]. On day 49, spleens were removed from 3 mice in each group and the percentage of CD25^+ and Fox P3^+ cells were calculated within the total CD4^+ population (FIG. 6).

[6] = tested on: HPV-16 transformed tumor cells; experiment: Consolidation therapy: immunotherapy post chemotherapy (Example 15); format: in vivo, C57BL/6 mice; details: CTX 100 or 30 mg/kg on days 14 and 16
Experimental: The animals are rested for 7 days until the number of lymphocytes in the blood reaches normal levels. At that point, all animals show reduced disease or complete remission relative to pre-treatment stage. […] Additional control arms are treated with CTX or radiotherapy but not immunized.

[7] = tested on: HPV-16 transformed tumor cells; experiment: Adjunctive therapy in late stage cancer, tumor progression (Example 10); format: in vivo, C57BL/6 mice; details: CTX 30 mg/kg Day 14, 18, immunization Day 20, 24, 34, 38, n=20
Source text: Tumor progression (FIG. 11, Panel A) and immune response (FIG. 11, Panel B) was compared to untreated tumor control mice (n=20).

[8] = tested on: HPV-16 transformed tumor cells; experiment: Adjunctive therapy: immunotherapy accompanying chemotherapy (Example 16); details: CTX 100 or 30 mg/kg on days 14 and 16
Experimental: C57BL/6 mice are inoculated subcutaneously with 10^5 HPV-16 transformed tumor cells on Day 0, and treated with CTX (100 or 30 mg/kg) on days 14 and 16 or treated by radiotherapy. […] Additional control arms are treated with CTX but not immunized.

## O=P1(N(CCCl)CCCl)NCCCO1 (centres unmarked) [cyclophosphamide]
[1]
  level of T-regs in spleen: reduced
  level of T-regs in the tumor: reduced
[2]; CTX 100 mg/kg from day 30 every other day
  remission in unimmunized animals: attain partial or complete remission
[2]; after CTX, radiotherapy or surgery
  relapse in unimmunized animals: relapse in a significant number
[3]
  median survival time: 68 days
[4]; CTX 100 mg/kg from day 14 every other day
  remission after primary treatment: attain complete remission
[4]; after complete remission
  relapse without follow up immunotherapy: relapse in a significant number
[5]
  levels of T-regulatory cells (CD25+ Fox P3+ within total CD4+) in spleen: significantly reduced levels
[6]
  remission after treatment: attain partial remission or complete remission within 10 days after treatment
[7]
  tumor regression compared to untreated tumor controls: did not significantly induce tumor regression
[8]
  remission after CTX treatment: attain partial remission or complete remission within 20 days after CTX treatment
